Assay: in vitro
Conditions: human, hek293t cells

Point of comparison: C=CC(=O)NCCc1ccc(S(C)(=O)=O)cc1 [2-A14, N-[2-(4-methanesulfonylphenyl)ethyl]prop-2-enamide], viability at 48 h, 25 µM 93.7%. Against it:
- C=CC(=O)Nc1ccnc(OC2CCCCC2)c1 [2-A04, N-[2-(cyclohexyloxy)pyridin-4-yl]prop-2-enamide] — lower, 0.76%
- C=CC(=O)NC(C)c1cnc(C(F)(F)F)s1 (stereo not drawn) [2-A05, N-{1-[2-(trifluoromethyl)-1,3-thiazol-5-yl]ethyl}prop-2-enamide] — lower, 73.5%
- C=CC(=O)N1CCC(Cc2nc(C3CCC3)no2)CC1 [2-A06, 1-{4-[(3-cyclobutyl-1,2,4-oxadiazol-5-yl)methyl]piperidin-1-yl}prop-2-en-1-one] — lower, 93%
- C=CC(=O)N(Cc1c2c(nn1C)CCOC2)c1cc(C)cc(C)c1 [2-A07, N-(3,5-dimethylphenyl)-N-({2-methyl-2H,4H,6H,7H-pyrano[4,3-c]pyrazol-3-yl}methyl)prop-2-enamide] — lower, 57.4%
- C=CC(=O)N1CCC(C(=O)Nc2ncc(CCO)s2)CC1 [2-A08, N-[5-(2-hydroxyethyl)-1,3-thiazol-2-yl]-1-(prop-2-enoyl)piperidine-4-carboxamide] — lower, 79.1%
- C=CC(=O)NCCN(C)S(=O)(=O)c1cccs1 [2-A09, N-[2-(N-methylthiophene-2-sulfonamido)ethyl]prop-2-enamide] — higher, 129%
- C=CC(=O)NC(c1ccc(C)cc1)C(C)S(C)(=O)=O (stereo not drawn) [2-A10, N-[2-methanesulfonyl-1-(4-methylphenyl)propyl]prop-2-enamide] — higher, 100%
- C=CC(=O)NCC1(c2nc(-c3ccccc3)cs2)CCOCC1 [2-A11, N-{[4-(4-phenyl-1,3-thiazol-2-yl)oxan-4-yl]methyl}prop-2-enamide] — lower, 93.1%
- C=CC(=O)NCc1ccc(C(=O)N2CCC(NC(C)=O)CC2)cc1 [2-A12, N-{[4-(4-acetamidopiperidine-1-carbonyl)phenyl]methyl}prop-2-enamide] — lower, 90.5%
- C=CC(=O)N(Cc1c(F)cc(C)cc1Cl)C1CCCOCC1 (stereo not drawn) [2-A13, N-[(2-chloro-6-fluoro-4-methylphenyl)methyl]-N-(oxepan-4-yl)prop-2-enamide] — higher, 99%
- C=CC(=O)N1CC[C@H](Oc2ccc(F)cc2)C1 [2-A15, 1-[(3S)-3-(4-fluorophenoxy)pyrrolidin-1-yl]prop-2-en-1-one] — higher, 185%
- C=CC(=O)N1CC(S(=O)(=O)N2CCOCC2)C1 [2-A16, 1-[3-(morpholine-4-sulfonyl)azetidin-1-yl]prop-2-en-1-one] — lower, 74%
- C=CC(=O)Nc1cc(C)n(CC(C)c2nnc3n2CCCCC3)n1 (stereo not drawn) [2-A17, N-[5-methyl-1-(2-{5H,6H,7H,8H,9H-[1,2,4]triazolo[4,3-a]azepin-3-yl}propyl)-1H-pyrazol-3-yl]prop-2-enamide] — higher, 175%
- C=CC(=O)NC1CC2CCC(C1)N2S(C)(=O)=O (stereo not drawn) [2-A18, N-{8-methanesulfonyl-8-azabicyclo[3.2.1]octan-3-yl}prop-2-enamide] — higher, 93.8%
- C=CC(=O)NCc1nc(C2CC2)cs1 [2-A19, N-[(4-cyclopropyl-1,3-thiazol-2-yl)methyl]prop-2-enamide] — higher, 103%
- C=CC(=O)N1CCC(n2ccc(C)n2)CC1 [2-A21, 1-[4-(3-methyl-1H-pyrazol-1-yl)piperidin-1-yl]prop-2-en-1-one] — higher, 139%
- C=CC(=O)N(c1cc(C)ccc1C#N)C(C)C [2-A22, N-(2-cyano-5-methylphenyl)-N-(propan-2-yl)prop-2-enamide] — higher, 111%
- C=CC(=O)NCc1ccc(-n2ccc(C3CC3)n2)cc1 [2-B03, N-{[4-(3-cyclopropyl-1H-pyrazol-1-yl)phenyl]methyl}prop-2-enamide] — lower, 85.9%
- C=CC(=O)N1CCC(C(=O)NCCC2(O)CCCOC2)CC1 (stereo not drawn) [2-B04, N-[2-(3-hydroxyoxan-3-yl)ethyl]-1-(prop-2-enoyl)piperidine-4-carboxamide] — lower, 70%
- C=CC(=O)NCC1CCN(C)C1=O (stereo not drawn) [2-B05, N-[(1-methyl-2-oxopyrrolidin-3-yl)methyl]prop-2-enamide] — lower, 71.1%
- C=CC(=O)N1CCC(C(=O)N2CCC(c3ncco3)CC2)CC1 [2-B06, 1-{4-[4-(1,3-oxazol-2-yl)piperidine-1-carbonyl]piperidin-1-yl}prop-2-en-1-one] — lower, 78.3%
- C=CC(=O)N(C1CCCC1)C(C)c1nnc2ccccn12 (stereo not drawn) [2-B07, N-cyclopentyl-N-(1-{[1,2,4]triazolo[4,3-a]pyridin-3-yl}ethyl)prop-2-enamide] — lower, 51.9%
- C=CC(=O)N1CCC(C(=O)N2CCN(CC(C)C)C(=O)C2C)CC1 (stereo not drawn) [2-B08, 3-methyl-1-(2-methylpropyl)-4-[1-(prop-2-enoyl)piperidine-4-carbonyl]piperazin-2-one] — lower, 83.8%
- C=CC(=O)NCC(=C)c1ccccc1 [2-B09, N-(2-phenylprop-2-en-1-yl)prop-2-enamide] — lower, 57%
- C=CC(=O)N1CCC(C(=O)NC(C)(c2noc(C)n2)C2CC2)CC1 (stereo not drawn) [2-B10, N-[1-cyclopropyl-1-(5-methyl-1,2,4-oxadiazol-3-yl)ethyl]-1-(prop-2-enoyl)piperidine-4-carboxamide] — lower, 79.8%
- C=CC(=O)NCCC(=O)N1CCC(O)(c2c(F)cccc2F)CC1 [2-B11, N-{3-[4-(2,6-difluorophenyl)-4-hydroxypiperidin-1-yl]-3-oxopropyl}prop-2-enamide] — lower, 60%
- C=CC(=O)N1CCC(C(=O)NC2CCOC3(CCSCC3)C2)CC1 (stereo not drawn) [2-B12, N-{1-oxa-9-thiaspiro[5.5]undecan-4-yl}-1-(prop-2-enoyl)piperidine-4-carboxamide] — higher, 97.1%
- C=CC(=O)NCCc1ccc(S(N)(=O)=O)cc1 [2-B13, N-[2-(4-sulfamoylphenyl)ethyl]prop-2-enamide] — lower, 77.8%
- C=CC(=O)N(C)CC(=O)NCc1nc2cc(C)ccc2n1C [2-B14, N-({[(1,5-dimethyl-1H-1,3-benzodiazol-2-yl)methyl]carbamoyl}methyl)-N-methylprop-2-enamide] — lower, 37.9%
- C=CC(=O)NCC1CCCc2nccn21 (stereo not drawn) [2-B15, N-({5H,6H,7H,8H-imidazo[1,2-a]pyridin-5-yl}methyl)prop-2-enamide] — lower, 76.8%
- C=CC(=O)N1CCC(C(=O)N[C@@H](C)C(=O)NC)(c2ccccc2)CC1 [2-B16, (2S)-N-methyl-2-{[4-phenyl-1-(prop-2-enoyl)piperidin-4-yl]formamido}propanamide] — lower, 87%
- C=CC(=O)NCc1ccnc(OC2CCOCC2)c1 [2-B17, N-{[2-(oxan-4-yloxy)pyridin-4-yl]methyl}prop-2-enamide] — lower, 69.9%
- C=CC(=O)N(CC)CC(=O)N1CCn2c(nc(C)c2C)C1 [2-B18, N-(2-{2,3-dimethyl-5H,6H,7H,8H-imidazo[1,2-a]pyrazin-7-yl}-2-oxoethyl)-N-ethylprop-2-enamide] — higher, 94.8%
- C=CC(=O)N(C)Cc1cc2sccc2n1C [2-B19, N-methyl-N-({4-methyl-4H-thieno[3,2-b]pyrrol-5-yl}methyl)prop-2-enamide] — lower, 75.1%
- C=CC(=O)NCc1ccc(C(=O)N2CCCCC(SC)C2)cc1 (stereo not drawn) [2-B20, N-({4-[3-(methylsulfanyl)azepane-1-carbonyl]phenyl}methyl)prop-2-enamide] — lower, 57.3%

Source: PMC11995724, “Antibiotic target discovery by integrated phenotypic and activity-based profiling of electrophilic fragments” (Cell chemical biology, 2025)
